{"source": "ChEMBL document CHEMBL6087454", "about": "“Identification of Novel Organo-Se BTSA-Based Derivatives as Potent, Reversible, and Selective PPARγ Covalent Modulators for Antidiabetic Drug Discovery” (J Med Chem, 2025)", "key": {"[1]": {"biological_target": "T1, Peroxisome proliferator-activated receptor gamma (Homo sapiens, UniProt P37231)", "T1 sequence (P37231 whole entry)": "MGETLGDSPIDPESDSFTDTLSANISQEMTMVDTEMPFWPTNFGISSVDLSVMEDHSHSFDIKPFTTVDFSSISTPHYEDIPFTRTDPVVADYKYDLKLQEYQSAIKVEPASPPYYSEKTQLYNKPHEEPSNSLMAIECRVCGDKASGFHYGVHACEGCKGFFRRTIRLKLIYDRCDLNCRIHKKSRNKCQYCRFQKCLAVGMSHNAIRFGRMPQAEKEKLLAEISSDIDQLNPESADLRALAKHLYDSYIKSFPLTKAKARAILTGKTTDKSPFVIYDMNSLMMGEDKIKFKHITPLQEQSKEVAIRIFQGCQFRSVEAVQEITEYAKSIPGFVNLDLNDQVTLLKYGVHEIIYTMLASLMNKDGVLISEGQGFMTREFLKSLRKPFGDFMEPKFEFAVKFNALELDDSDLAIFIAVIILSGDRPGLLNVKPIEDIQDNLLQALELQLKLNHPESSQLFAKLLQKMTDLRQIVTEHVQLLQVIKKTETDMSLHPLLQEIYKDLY", "assay": "Displacement of fluormone pan-PPAR green from recombinant GST-tagged human PPAR-gamma ligand binding domain (E235 to Y505 residues) extracted from Escherichia coli BL21 (DE3) cells by TR-FRET assay"}, "[2]": {"biological_target": "T1, Peroxisome proliferator-activated receptor gamma", "assay": "Binding affinity to recombinant GST-tagged human PPAR-gamma ligand binding domain (E235 to Y505 residues) extracted from Escherichia coli BL21 (DE3) cells assessed as inhibition constant in presence of fluormone pan-PPAR green tracer by TR-FRET assay"}, "[3]": {"biological_target": "T2, Peroxisome proliferator-activated receptor gamma (Homo sapiens) (UniProt P37231)", "T2 sequence (whole entry)": "T1 sequence (P37231 whole entry)", "assay": "Covalent binding affinity to recombinant PPAR-gamma ligand binding domain (unknown origin) at Cys285 residue at 0.4 uM incubated for 30 mins by rhodamine-maleimide staining based SDS-PAGE analysis"}, "[4]": {"system": "3T3-L1", "assay": "Induction of adipocyte differentiation in mouse 3T3-L1 cells assessed as lipid accumulation at 1 uM measured after 48 hrs in presence of 1-oxido-1-(4-(tosyloxy)phenyl)-1lambda4-benzo[d][1,3,2]thiaselenazol-5-yl 4-methylbenzenesulfonate by Oil red O staining based inverted microscopic analysis", "type": "functional, cell-based"}, "[5]": {"assay": "Toxicity in male db/db mouse model assessed as hepatomegaly in liver at 10 mg/kg/day, po administered for 4 weeks", "type": "organism-based", "details": "in vivo, 672 h"}, "[6]": {"assay": "Toxicity in male db/db mouse model assessed as lipid accumulation in liver at 10 mg/kg/day, po administered for 4 weeks", "type": "organism-based", "details": "in vivo, 672 h"}, "[7]": {"assay": "Toxicity in male db/db mouse model assessed as increase in liver weight at 10 mg/kg/day, po administered for 4 weeks", "type": "organism-based", "details": "in vivo, 672 h"}, "[8]": {"assay": "Toxicity in male db/db mouse model assessed as increase in serum ALT level at 10 mg/kg/day, po administered for 4 weeks by ELISA", "type": "organism-based", "details": "in vivo, 672 h"}, "[9]": {"assay": "Toxicity in male db/db mouse model assessed as increase in serum AST level at 10 mg/kg/day, po administered for 4 weeks by ELISA", "type": "organism-based", "details": "in vivo, 672 h"}, "[10]": {"assay": "Toxicity in male db/db mouse model assessed as increase in blood cholesterol level at 10 mg/kg/day, po administered for 4 weeks by ELISA", "type": "organism-based", "details": "in vivo, 672 h"}, "[11]": {"assay": "Toxicity in male db/db mouse model assessed as increase in blood triglyceride level at 10 mg/kg/day, po administered for 4 weeks by ELISA", "type": "organism-based", "details": "in vivo, 672 h"}, "[12]": {"assay": "Toxicity in male db/db mouse model assessed as increase in lipid accumulation in liver at 10 mg/kg/day, po administered for 4 weeks by Oil red O staining based analysis", "type": "organism-based", "details": "in vivo, 672 h"}, "[13]": {"assay": "Toxicity in male db/db mouse model assessed as increase in white adipocytes size at 10 mg/kg/day, po administered for 4 weeks by H and E staining based analysis", "type": "organism-based", "details": "in vivo, 672 h"}, "[14]": {"assay": "Toxicity in male db/db mouse model assessed as increase in brown adipocytes size at 10 mg/kg/day, po administered for 4 weeks by H and E staining based analysis", "type": "organism-based", "details": "in vivo, 672 h"}}, "note": "Active and inactive are the calls of the source. The calls are words filed in the database; no cut-off is given here."}
{"smiles": "O=S1(c2cccc(Cl)c2)=N[Se]c2ccc(Cl)cc21", "note": "(stereo not given)", "values": [{"measurement": "IC50", "setting": "[1]", "value": 0.64, "unit": "µM"}, {"measurement": "Ki", "setting": "[2]", "value": 230, "unit": "nM"}]}
{"smiles": "CCCc1ccc(S2(=O)=N[Se]c3cc(CCC)ccc32)cc1", "note": "(stereo not given)", "values": [{"measurement": "IC50", "setting": "[1]", "value": 2.11, "unit": "µM"}, {"measurement": "Ki", "setting": "[2]", "value": 760, "unit": "nM"}]}
{"smiles": "CC(C)(C)c1ccc(S2(=O)=N[Se]c3cc(C(C)(C)C)ccc32)cc1", "note": "(stereo not given)", "values": [{"measurement": "IC50", "setting": "[1]", "value": 1.24, "unit": "µM"}, {"measurement": "Ki", "setting": "[2]", "value": 450, "unit": "nM"}]}
{"smiles": "CCS1(=O)=N[Se]c2ccccc21", "note": "(stereo not given)", "values": [{"measurement": "IC50", "setting": "[1]", "value": "> 50", "unit": "µM"}, {"measurement": "Ki", "setting": "[2]", "value": "> 18000", "unit": "nM"}]}
{"smiles": "Cc1ccc2c(c1)[Se]N=S2(C)=O", "note": "(stereo not given)", "values": [{"measurement": "IC50", "setting": "[1]", "value": "> 50", "unit": "µM"}, {"measurement": "Ki", "setting": "[2]", "value": "> 18000", "unit": "nM"}]}
{"smiles": "COC(=O)c1ccc2c(c1)[Se]N=S2(C)=O", "note": "(stereo not given)", "values": [{"measurement": "IC50", "setting": "[1]", "value": "> 50", "unit": "µM"}, {"measurement": "Ki", "setting": "[2]", "value": "> 18000", "unit": "nM"}]}
{"smiles": "O=S1(c2ccc(Cl)cc2)=N[Se]c2cc(Cl)ccc21", "note": "(stereo not given)", "values": [{"measurement": "IC50", "setting": "[1]", "value": 40.4, "unit": "µM"}, {"measurement": "Ki", "setting": "[2]", "value": 14500, "unit": "nM"}]}
{"smiles": "O=S1(c2ccc(-c3ccccc3)cc2)=N[Se]c2cc(-c3ccccc3)ccc21", "note": "(stereo not given)", "values": [{"measurement": "IC50", "setting": "[1]", "value": 1.68, "unit": "µM"}, {"measurement": "Ki", "setting": "[2]", "value": 600, "unit": "nM"}]}
{"smiles": "CS1(=O)=N[Se]c2cc(Cl)ccc21", "note": "(stereo not given)", "values": [{"measurement": "IC50", "setting": "[1]", "value": "> 50", "unit": "µM"}, {"measurement": "Ki", "setting": "[2]", "value": "> 18000", "unit": "nM"}]}
{"smiles": "O=S1(c2ccc(Br)cc2)=N[Se]c2cc(Br)ccc21", "note": "(stereo not given)", "values": [{"measurement": "IC50", "setting": "[1]", "value": 1.48, "unit": "µM"}, {"measurement": "Ki", "setting": "[2]", "value": 530, "unit": "nM"}]}
{"smiles": "Cc1cc(C)cc(S2(=O)=N[Se]c3c(C)cc(C)cc32)c1", "note": "(stereo not given)", "values": [{"measurement": "IC50", "setting": "[1]", "value": 38.2, "unit": "µM"}, {"measurement": "Ki", "setting": "[2]", "value": 13700, "unit": "nM"}]}
{"smiles": "O=S1(c2ccc(C(F)(F)F)cc2)=N[Se]c2cc(C(F)(F)F)ccc21", "note": "(stereo not given)", "values": [{"measurement": "IC50", "setting": "[1]", "value": 1.73, "unit": "µM"}, {"measurement": "Ki", "setting": "[2]", "value": 620, "unit": "nM"}]}
{"smiles": "O=[N+]([O-])c1ccc(S2(=O)=N[Se]c3cc([N+](=O)[O-])ccc32)cc1", "note": "(stereo not given)", "values": [{"measurement": "IC50", "setting": "[1]", "value": 0.67, "unit": "µM"}, {"measurement": "Ki", "setting": "[2]", "value": 240, "unit": "nM"}]}
{"smiles": "CS1(=O)=N[Se]c2ccccc21", "note": "(stereo not given)", "values": [{"measurement": "IC50", "setting": "[1]", "value": "> 50", "unit": "µM"}, {"measurement": "Ki", "setting": "[2]", "value": "> 18000", "unit": "nM"}]}
{"smiles": "CS1(=O)=N[Se]c2cccc(Cl)c21", "note": "(stereo not given)", "values": [{"measurement": "IC50", "setting": "[1]", "value": "> 50", "unit": "µM"}, {"measurement": "Ki", "setting": "[2]", "value": "> 18000", "unit": "nM"}]}
{"smiles": "CN(CCOc1ccc(CC2SC(=O)NC2=O)cc1)c1ccccn1", "note": "(stereo not given) [ROSIGLITAZONE]", "values": [{"measurement": "Activity", "setting": "[3]", "value": "inactive"}, {"measurement": "Activity", "setting": "[4]", "value": "inactive"}, {"measurement": "Activity", "setting": "[5]", "value": "Toxic"}, {"measurement": "Activity", "setting": "[6]", "value": "Toxic"}, {"measurement": "Activity", "setting": "[7]", "value": "Toxic"}, {"measurement": "Activity", "setting": "[8]", "value": "Toxic"}, {"measurement": "Activity", "setting": "[9]", "value": "Toxic"}, {"measurement": "Activity", "setting": "[10]", "value": "Toxic"}, {"measurement": "Activity", "setting": "[11]", "value": "Non-toxic"}, {"measurement": "Activity", "setting": "[12]", "value": "Toxic"}, {"measurement": "Activity", "setting": "[13]", "value": "Toxic"}, {"measurement": "Activity", "setting": "[14]", "value": "Toxic"}]}
{"smiles": "Cc1cccc(S2(=O)=N[Se]c3ccc(C)cc32)c1", "note": "(stereo not given)", "values": [{"measurement": "IC50", "setting": "[1]", "value": 8.26, "unit": "µM"}, {"measurement": "Ki", "setting": "[2]", "value": 2970, "unit": "nM"}]}
{"smiles": "O=S1(CCl)=N[Se]c2ccccc21", "note": "(stereo not given)", "values": [{"measurement": "IC50", "setting": "[1]", "value": "> 50", "unit": "µM"}, {"measurement": "Ki", "setting": "[2]", "value": "> 18000", "unit": "nM"}]}
{"smiles": "COc1cccc(S2(=O)=N[Se]c3ccc(OC)cc32)c1", "note": "(stereo not given)", "values": [{"measurement": "IC50", "setting": "[1]", "value": 3.28, "unit": "µM"}, {"measurement": "Ki", "setting": "[2]", "value": 1180, "unit": "nM"}]}
{"smiles": "O=S1(c2ccccc2)=N[Se]c2ccccc21", "note": "(stereo not given)", "values": [{"measurement": "IC50", "setting": "[1]", "value": "> 50", "unit": "µM"}, {"measurement": "Ki", "setting": "[2]", "value": "> 18000", "unit": "nM"}]}
{"smiles": "Cc1ccc(S2(=O)=N[Se]c3cc(C)ccc32)cc1", "note": "(stereo not given)", "values": [{"measurement": "IC50", "setting": "[1]", "value": 12.6, "unit": "µM"}, {"measurement": "Ki", "setting": "[2]", "value": 4520, "unit": "nM"}]}
{"smiles": "O=S1(C2CC2)=N[Se]c2ccccc21", "note": "(stereo not given)", "values": [{"measurement": "IC50", "setting": "[1]", "value": "> 50", "unit": "µM"}, {"measurement": "Ki", "setting": "[2]", "value": "> 18000", "unit": "nM"}]}
{"smiles": "Cc1ccccc1S1(=O)=N[Se]c2cccc(C)c21", "note": "(stereo not given)", "values": [{"measurement": "IC50", "setting": "[1]", "value": 39.3, "unit": "µM"}, {"measurement": "Ki", "setting": "[2]", "value": 14100, "unit": "nM"}]}
{"smiles": "O=S(=O)(Oc1ccc(S2(=O)=N[Se]c3cc(OS(=O)(=O)C(F)(F)F)ccc32)cc1)C(F)(F)F", "note": "(stereo not given)", "values": [{"measurement": "IC50", "setting": "[1]", "value": 2.48, "unit": "µM"}, {"measurement": "Ki", "setting": "[2]", "value": 890, "unit": "nM"}]}
{"smiles": "CS1(=O)=N[Se]c2ccc(Cl)cc21", "note": "(stereo not given)", "values": [{"measurement": "IC50", "setting": "[1]", "value": "> 50", "unit": "µM"}, {"measurement": "Ki", "setting": "[2]", "value": "> 18000", "unit": "nM"}]}
